Laboratory results: PubChem BioAssay (NCI)
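Five concentrations, 48 hours, 96-well plates. GI50 is the concentration that inhibits growth by half. TGI is the concentration that stops growth completely.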

Legend:
Assay in all cases: NCI-60 cell line screen, 48 h
RPMI-8226 leukemia = test system: RPMI-8226 leukemia
DU-145 prostate = test system: DU-145 prostate
OVCAR-4 ovarian = test system: OVCAR-4 ovarian
NCI-H226 lung = test system: NCI-H226 lung
CCRF-CEM leukemia = test system: CCRF-CEM leukemia
KM12 colon = test system: KM12 colon
OVCAR-3 ovarian = test system: OVCAR-3 ovarian
PC-3 prostate = test system: PC-3 prostate
HT29 colon = test system: HT29 colon
UACC-257 melanoma = test system: UACC-257 melanoma
K-562 leukemia = test system: K-562 leukemia
OVCAR-8 ovarian = test system: OVCAR-8 ovarian
SK-MEL-28 melanoma = test system: SK-MEL-28 melanoma
NCI-H522 lung = test system: NCI-H522 lung
MDA-MB-231 breast = test system: MDA-MB-231 breast
A549 NSCLC = test system: A549 NSCLC
RXF 393 renal = test system: RXF 393 renal
CAKI-1 renal = test system: CAKI-1 renal
HS 578T breast = test system: HS 578T breast
MOLT-4 leukemia = test system: MOLT-4 leukemia
SW-620 colon = test system: SW-620 colon
SR leukemia = test system: SR leukemia
NCI-H460 lung = test system: NCI-H460 lung
SN12C renal = test system: SN12C renal
HCC-2998 colon = test system: HCC-2998 colon
M14 melanoma = test system: M14 melanoma
HL-60(TB) leukemia = test system: HL-60(TB) leukemia
SNB-19 CNS = test system: SNB-19 CNS
IGROV1 ovarian = test system: IGROV1 ovarian
HCT-116 colon = test system: HCT-116 colon
U251 CNS = test system: U251 CNS
SF-268 CNS = test system: SF-268 CNS
786-0 renal = test system: 786-0 renal
EKVX NSCLC = test system: EKVX NSCLC
SK-MEL-5 melanoma = test system: SK-MEL-5 melanoma
UACC-62 melanoma = test system: UACC-62 melanoma
HOP-62 NSCLC = test system: HOP-62 NSCLC
A498 renal = test system: A498 renal
MALME-3M melanoma = test system: MALME-3M melanoma
TK-10 renal = test system: TK-10 renal
MCF7 breast = test system: MCF7 breast
HCT-15 colon = test system: HCT-15 colon
UO-31 renal = test system: UO-31 renal
SNB-75 CNS = test system: SNB-75 CNS
T-47D breast = test system: T-47D breast
LOX IMVI melanoma = test system: LOX IMVI melanoma
COLO 205 colon = test system: COLO 205 colon
SK-MEL-2 melanoma = test system: SK-MEL-2 melanoma
SK-OV-3 ovarian = test system: SK-OV-3 ovarian
ACHN renal = test system: ACHN renal
OVCAR-5 ovarian = test system: OVCAR-5 ovarian
HOP-92 NSCLC = test system: HOP-92 NSCLC
NCI/ADR-RES ovarian = test system: NCI/ADR-RES ovarian
NCI-H23 lung = test system: NCI-H23 lung
SF-539 CNS = test system: SF-539 CNS
SF-295 CNS = test system: SF-295 CNS
MDA-MB-435 = test system: MDA-MB-435
BT-549 breast = test system: BT-549 breast

SMILES: NCCOc1ncccc1/C=C1\c2ccccc2-c2ccc(F)cc21
- GI50 (RPMI-8226 leukemia): 1470 nM
- TGI (RPMI-8226 leukemia): 3510 nM
- GI50 (DU-145 prostate): 467 nM
- TGI (DU-145 prostate): 1890 nM
- GI50 (OVCAR-4 ovarian): 1520 nM
- TGI (OVCAR-4 ovarian): 3470 nM
- GI50 (NCI-H226 lung): 1000 nM
- TGI (NCI-H226 lung): 2530 nM
- GI50 (CCRF-CEM leukemia): 316 nM
- TGI (CCRF-CEM leukemia): 2390 nM
- GI50 (KM12 colon): 1460 nM
- TGI (KM12 colon): 2980 nM
- GI50 (OVCAR-3 ovarian): 1630 nM
- TGI (OVCAR-3 ovarian): 3110 nM
- GI50 (PC-3 prostate): 1180 nM
- TGI (PC-3 prostate): 2620 nM
- GI50 (HT29 colon): 1190 nM
- TGI (HT29 colon): 2800 nM
- GI50 (UACC-257 melanoma): 1660 nM
- TGI (UACC-257 melanoma): 3340 nM
- GI50 (K-562 leukemia): 994 nM
- TGI (K-562 leukemia): 3390 nM
- GI50 (OVCAR-8 ovarian): 1080 nM
- TGI (OVCAR-8 ovarian): 2750 nM
- GI50 (SK-MEL-28 melanoma): 1620 nM
- TGI (SK-MEL-28 melanoma): 3040 nM
- GI50 (NCI-H522 lung): 1130 nM
- TGI (NCI-H522 lung): 2760 nM
- GI50 (MDA-MB-231 breast): 1430 nM
- TGI (MDA-MB-231 breast): 2940 nM
- GI50 (A549 NSCLC): 311 nM
- TGI (A549 NSCLC): 1920 nM
- GI50 (RXF 393 renal): 1600 nM
- TGI (RXF 393 renal): 3660 nM
- GI50 (CAKI-1 renal): 461 nM
- TGI (CAKI-1 renal): 2000 nM
- GI50 (HS 578T breast): 1740 nM
- TGI (HS 578T breast): 5020 nM
- GI50 (MOLT-4 leukemia): 282 nM
- TGI (MOLT-4 leukemia): 1160 nM
- GI50 (SW-620 colon): 682 nM
- TGI (SW-620 colon): 2170 nM
- GI50 (SR leukemia): 116 nM
- TGI (SR leukemia): 2940 nM
- GI50 (NCI-H460 lung): 236 nM
- TGI (NCI-H460 lung): 1370 nM
- GI50 (SN12C renal): 449 nM
- TGI (SN12C renal): 1710 nM
- GI50 (HCC-2998 colon): 1340 nM
- TGI (HCC-2998 colon): 2750 nM
- GI50 (M14 melanoma): 739 nM
- TGI (M14 melanoma): 2260 nM
- GI50 (HL-60(TB) leukemia): 340 nM
- TGI (HL-60(TB) leukemia): 1300 nM
- GI50 (SNB-19 CNS): 570 nM
- TGI (SNB-19 CNS): 2580 nM
- GI50 (IGROV1 ovarian): 1160 nM
- TGI (IGROV1 ovarian): 2470 nM
- GI50 (HCT-116 colon): 703 nM
- TGI (HCT-116 colon): 2120 nM
- GI50 (U251 CNS): 525 nM
- TGI (U251 CNS): 1850 nM
- GI50 (SF-268 CNS): 1080 nM
- TGI (SF-268 CNS): 4100 nM
- GI50 (786-0 renal): 575 nM
- TGI (786-0 renal): 1940 nM
- GI50 (EKVX NSCLC): 1350 nM
- TGI (EKVX NSCLC): 3550 nM
- GI50 (SK-MEL-5 melanoma): 1360 nM
- TGI (SK-MEL-5 melanoma): 2680 nM
- GI50 (UACC-62 melanoma): 1040 nM
- TGI (UACC-62 melanoma): 2380 nM
- GI50 (HOP-62 NSCLC): 446 nM
- TGI (HOP-62 NSCLC): 1870 nM
- GI50 (A498 renal): 1610 nM
- TGI (A498 renal): 4770 nM
- GI50 (MALME-3M melanoma): 1240 nM
- TGI (MALME-3M melanoma): 2640 nM
- GI50 (TK-10 renal): 1370 nM
- TGI (TK-10 renal): 2850 nM
- GI50 (MCF7 breast): 379 nM
- TGI (MCF7 breast): 1680 nM
- GI50 (HCT-15 colon): 781 nM
- TGI (HCT-15 colon): 2320 nM
- GI50 (UO-31 renal): 1120 nM
- TGI (UO-31 renal): 2340 nM
- GI50 (SNB-75 CNS): 1100 nM
- TGI (SNB-75 CNS): 3260 nM
- GI50 (T-47D breast): 687 nM
- TGI (T-47D breast): 2740 nM
- GI50 (LOX IMVI melanoma): 598 nM
- TGI (LOX IMVI melanoma): 1980 nM
- GI50 (COLO 205 colon): 1050 nM
- TGI (COLO 205 colon): 2310 nM
- GI50 (SK-MEL-2 melanoma): 1910 nM
- TGI (SK-MEL-2 melanoma): 3760 nM
- GI50 (SK-OV-3 ovarian): 1240 nM
- TGI (SK-OV-3 ovarian): 2910 nM
- GI50 (ACHN renal): 349 nM
- TGI (ACHN renal): 1370 nM
- GI50 (OVCAR-5 ovarian): 1570 nM
- TGI (OVCAR-5 ovarian): 3070 nM
- GI50 (HOP-92 NSCLC): 353 nM
- TGI (HOP-92 NSCLC): 3190 nM
- GI50 (NCI/ADR-RES ovarian): 1240 nM
- TGI (NCI/ADR-RES ovarian): 2710 nM
- GI50 (NCI-H23 lung): 631 nM
- TGI (NCI-H23 lung): 2510 nM
- GI50 (SF-539 CNS): 1490 nM
- TGI (SF-539 CNS): 2870 nM
- GI50 (SF-295 CNS): 462 nM
- TGI (SF-295 CNS): 1810 nM
- GI50 (MDA-MB-435): 1550 nM
- TGI (MDA-MB-435): 2980 nM
- GI50 (BT-549 breast): 1640 nM
- TGI (BT-549 breast): 4480 nM
